Source: patent publication US20150038435A1, “N-TERMINALLY MODIFIED OLIGOPEPTIDES AND USES THEREOF” (Novo Nordisk A/S, priority 2012, published 2015)
Starred links: 1 amine or outer side, 2 acyl side, 3 side chain; linkers in the order of their positions; H or OH if unused. Non-standard residues stand in square brackets, D forms with d. *: point of attachment. γGlu = O=C(O)[C@H](CCC(=O)[*:2])N[*:1]; Lauroyl = CCCCCCCCCCCC(=O)*

Tests used:
Chymotrypsin = assay: Inhibition of enzymatic degradation of a model GLP-1 (FRET substrate) by chymotrypsin; type: biochemical; details: for EC50: read-out: EC50 Chymotrypsin (0.001 mg/ml), 0.001 mg/ml chymotrypsin, 37° C., ± standard error if at least 3 measurements
How it was run: (§1)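 Initial-rate slopes of fluorescence rise (320 nm ex, 405 nm em), fitted over the linear early phase and averaged from duplicates, were plotted against inhibitor concentration and fitted logistically to give EC50. Reactions ran at 37° C in Dulbecco's PBS, with MCA/DNP GLP-1 FRET substrate added as 10 μl of 100 μM stock.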

Trypsin = assay: Inhibition of enzymatic degradation of a model GLP-1 (FRET substrate) by trypsin; type: biochemical; details: for EC50: read-out: EC50 Trypsin (0.001 mg/ml), 0.001 mg/ml trypsin, 37° C.
How it was run: as §1

[1] = Hydrophobicity: retention time during reverse phase HPLC; type: physicochemical; details: Acquity CSH C18; pH 7.2 buffer/CH3CN gradient; 40° C.
Text: The retention time (RT) during reverse phase HPLC was taken as a measure of hydrophobicity of an N-terminally modified peptide or oligopeptide of the invention, where the connection is: The longer the RT, the more hydrophobic N-terminally modified peptide or oligopeptide. The following running conditions were applied during HPLC analysis:
Buffer B: 70% (v/v) aq. CH3CN

[2] = compound 0.1 mM, buffer containing 8% DMSO

Substance	Slope of the initial increase in fluorescence obtained during incubation with 0.001 mg/ml Chymotrypsin (Chymotrypsin; [2])	Slope of the initial increase in fluorescence obtained during incubation with 0.001 mg/ml Trypsin (Trypsin; [2])	RT (retention time during reverse phase HPLC as a measure of hydrophobicity) [1] [min]	Slope of the initial increase in fluorescence obtained during incubation with 0.001 mg/ml Chymotrypsin (Chymotrypsin; compound 1 mM)	Slope of the initial increase in fluorescence obtained during incubation with 0.001 mg/ml Trypsin (Trypsin; compound 1 mM)	EC50 (Chymotrypsin) [µM]	EC50 (Trypsin) [µM]
N-dodecanoyl-Asp-Ala-Pro-Tyr-OH (Lauroyl-DAPY-OH; SMILES CCCCCCCCCCCC(=O)N[C@@H](CC(=O)O)C(=O)N[C@@H](C)C(=O)N1CCC[C@H]1C(=O)N[C@@H](Cc1ccc(O)cc1)C(=O)O) [Example 96]	1.63	1.78	3.86	–	–	–	–
N-dodecanoyl-Glu-Ala-Pro-Tyr-OH (Lauroyl-EAPY-OH; SMILES CCCCCCCCCCCC(=O)N[C@@H](CCC(=O)O)C(=O)N[C@@H](C)C(=O)N1CCC[C@H]1C(=O)N[C@@H](Cc1ccc(O)cc1)C(=O)O) [Example 105]	1.31	1.56	3.91	–	–	–	–
N-dodecanoyl-Ala-Ala-Pro-DPhe-OH [Example 4]	–	–	6.89	0.08	0.83	–	–
N-dodecanoyl-γGlu-OEG-Ala-Ala-Pro-Phe-OH [Example 125]	–	–	3.95	0.75	0.38	–	–
N-hexadecanoyl-γGlu-OEG-Ala-Ala-Pro-Phe-OH [Example 134]	–	–	7	–	–	48	46
N-dodecanoyl-Asn-Pro-Tyr-OH [Example 114]	2.01	1.99	5.07	–	–	–	–
N-dodecanoyl-Pro-Ala-Pro-Tyr-OH (Lauroyl-PAPY-OH; SMILES CCCCCCCCCCCC(=O)N1CCC[C@H]1C(=O)N[C@@H](C)C(=O)N1CCC[C@H]1C(=O)N[C@@H](Cc1ccc(O)cc1)C(=O)O) [Example 49]	0.57	1.96	6.2	–	–	–	–
N-dodecanoyl-γGlu-Pro-Tyr-OH [Example 100]	1.75	1.69	3.9	–	–	–	–
N-dodecanoyl-γGlu-OEG-OEG-Arg-OH [Example 132]	–	–	3.62	0.35	0.26	–	–
N-dodecanoyl-γGlu-OEG-Pro-Arg-OH [Example 127]	–	–	3.67	0.62	0.72	–	–
N-tetradecanoyl-βAla-βAla-βAla-Pro-Phe-OH [Example 138]	–	–	8.16	–	–	154	39
N-dodecanoyl-Tyr-Pro-Tyr-OH [Example 110]	0.35	1.77	6.24	–	–	–	–
N-dodecanoyl-Ala-Gln-Pro-Tyr-OH (Lauroyl-AQPY-OH; SMILES CCCCCCCCCCCC(=O)N[C@@H](C)C(=O)N[C@@H](CCC(N)=O)C(=O)N1CCC[C@H]1C(=O)N[C@@H](Cc1ccc(O)cc1)C(=O)O) [Example 76]	0.85	2.22	5.26	–	–	–	–
N-dodecanoyl-Ala-Gly-Pro-Tyr-OH (Lauroyl-AGPY-OH; SMILES CCCCCCCCCCCC(=O)N[C@@H](C)C(=O)NCC(=O)N1CCC[C@H]1C(=O)N[C@@H](Cc1ccc(O)cc1)C(=O)O) [Example 78]	1.03	1.87	5.59	–	–	–	–
N-dodecanoyl-Thr-Ala-Ala-Pro-Tyr-OH [Example 52]	0.01	1.68	5.47	–	–	–	–
N-dodecanoyl-Ala-Leu-Pro-Tyr-OH (Lauroyl-ALPY-OH; SMILES CCCCCCCCCCCC(=O)N[C@@H](C)C(=O)N[C@@H](CC(C)C)C(=O)N1CCC[C@H]1C(=O)N[C@@H](Cc1ccc(O)cc1)C(=O)O) [Example 81]	0.40	1.90	7.38	–	–	–	–
N-dodecanoyl-γGlu-γGlu-Ala-Ala-Pro-Tyr-OH [Example 99]	0.35	1.52	3.41	–	–	–	–
N-dodecanoyl-Phe-Pro-Tyr-OH [Example 124]	0.12	0.63	8.19	–	–	–	–
Ala-Ala-Pro-Phe-OH [Example 14]	–	–	3.08	3.53	4.46	–	–
N-dodecanoyl-Ala-Ala-Ser-Tyr-OH (Lauroyl-AASY-OH; SMILES CCCCCCCCCCCC(=O)N[C@@H](C)C(=O)N[C@@H](C)C(=O)N[C@@H](CO)C(=O)N[C@@H](Cc1ccc(O)cc1)C(=O)O) [Example 70]	1.50	1.45	5.43	–	–	–	–
N-dodecanoyl-γGlu-Ala-Pro-Tyr-OH (Lauroyl-[γGlu]APY-OH; SMILES CCCCCCCCCCCC(=O)N[C@@H](CCC(=O)N[C@@H](C)C(=O)N1CCC[C@H]1C(=O)N[C@@H](Cc1ccc(O)cc1)C(=O)O)C(=O)O) [Example 98]	1.39	1.53	3.79	–	–	–	–
N-dodecanoyl-Lys-Ala-Pro-Tyr-OH (Lauroyl-KAPY-OH; SMILES CCCCCCCCCCCC(=O)N[C@@H](CCCCN)C(=O)N[C@@H](C)C(=O)N1CCC[C@H]1C(=O)N[C@@H](Cc1ccc(O)cc1)C(=O)O) [Example 45]	0.89	1.84	4.62	–	–	–	–
N-dodecanoyl-Thr-Ala-Pro-Tyr-OH (Lauroyl-TAPY-OH; SMILES CCCCCCCCCCCC(=O)N[C@H](C(=O)N[C@@H](C)C(=O)N1CCC[C@H]1C(=O)N[C@@H](Cc1ccc(O)cc1)C(=O)O)[C@@H](C)O) [Example 53]	0.16	1.80	5.52	–	–	–	–
N-dodecanoyl-OEG-OEG-Phe-OEG-OH [Example 130]	–	–	6.21	0.54	0.67	–	–
N-dodecanoyl-Lys-Pro-Tyr-OH [Example 122]	0.26	1.68	5.17	–	–	–	–
N-dodecanoyl-Pro-Ala-Ala-Pro-Tyr-OH [Example 48]	0.07	1.55	6.2	–	–	–	–
N-dodecanoyl-Gly-Ala-Ala-Pro-Tyr-OH [Example 36]	0.16	1.47	5.33	–	–	–	–
N-dodecanoyl-Met-Pro-Tyr-OH [Example 123]	0.82	2.11	7.23	–	–	–	–
N-tetradecanoyl-Ala-Ala-Pro-DPhe-OH [Example 5]	–	–	9.74	0.09	0.35	105	–
